Laboratory results reported in patent US20220257491A1, “Prebiotic Oral Care Compositions and Methods” (Colgate-Palmolive Company, priority 2021, published 2022).
Marks after values point to notes of the source that are not given here.

Tests used:
Format in all cases: cell-based
A. actinomycetemcomitans = test: Multi-species biofilm composition: absolute abundance of A. actinomycetemcomitans; conditions: mean±SD n=3
Experimental: (§1) Biofilms are grown vertically on Calcium Deficient Hydroxyapatite (CAD-HA) disks (Hitemco Medical, Old Bethpage, USA) using the Amsterdam Active Adhesion model. Biofilms are allowed to establish during 24 h (37° C., 170 rpm) under micro-aerophilic conditions (6% O2, 7% CO2, 7% H2, 80% N2). After this 24 h, disks are rinsed 3 times a day for 3 minutes (RT, 250 rpm), for 3 consecutive days, by transferring the lid containing the disks to a new 24-well plate containing 2 mL/well of the appropriate substrate solution. As a negative control, PBS (pH 5.7) without substrate supplementation is used. After each rinsing step, disks are shortly dip-rinsed in a new 24-well plate containing fresh modified BHI medium (2 mL/well) to remove remaining substrate traces. Subsequently, the lid is transferred to another 24-well plate containing fresh modified BHI medium (2 mL/well), followed by incubation (micro-aerophilic, 37° C., 170 rpm) until the next rinsing step.
(§2) NADM, N-acetyl-D-glucosamine (“NADG”) and D-(+)-mannose are selected to determine their effects on multi-species biofilm composition. […] decrease in absolute numbers in at least four of the pathogenic bacterial species tested in the assay, compared to the control, the results of which are described in Table 1 below. Absolute abundances of bacterial species are shown as mean±SD (n=3) logarithmic values of the genome equivalents per millilitre (log(Geq/mL)).

P. intermedia = test: Multi-species biofilm composition: absolute abundance of P. intermedia; conditions: mean±SD n=3
Experimental: as §1
(§3) NADM, N-acetyl-D-glucosamine (“NADG”) and D-(+)-mannose are selected to determine their effects on multi-species biofilm composition. Repeated rinsing of the biofilms with the substrates at a concentration of 1M results in a significant decrease in absolute numbers in at least four of the pathogenic bacterial species tested in the assay, compared to the control, the results of which are described in Table 1 below. Absolute abundances of bacterial species are shown as mean±SD (n=3) logarithmic values of the genome equivalents per millilitre (log(Geq/mL)).

S. sobrinus = test: Multi-species biofilm composition: absolute abundance of S. sobrinus; conditions: mean±SD n=3
Experimental: as §1, §2

A. viscosus = test: Multi-species biofilm composition: absolute abundance of A. viscosus; conditions: mean±SD n=3
Experimental: as §1, §2

S. salivarius = test: Multi-species biofilm composition: absolute abundance of S. salivarius; conditions: mean±SD n=3
Experimental: as §1, §3

V. parvula = test: Multi-species biofilm composition: absolute abundance of V. parvula; conditions: mean±SD n=3
Experimental: as §1, §3

multi-species biofilm = test: Relative multi-species biofilm composition (groups of bacterial species); conditions: for Relative abundance Beneficials/Commensals / Relative abundance Cariogenic Pathogens / Relative abundance Periodontal Pathogens / Relative abundance Beneficial or commensals: mean±SD n=3
Experimental: as §1, §2
Relative abundances of the different groups (beneficial/commensals, periodontal pathogens, cariogenic pathogens) of bacterial species are shown as mean±SD (n=3) percentage of the genome equivalents per millilitre (% (Geq/mL)). […] NADM: N-acetyl-D-mannosamine; NADG: N-acetyl-D-glucosamine.

multi-species biofilms = test: Multi-species biofilm organic acid balances (supernatant); conditions: >0 production, <0 consumption, mean±SD n=3
Experimental: as §1
To examine the effect of NADM and the influence of the orientation and absence/presence of the N-acetyl group on organic acid production and consumption, supernatant samples from substrate-treated or untreated multi-species biofilms are analysed. […] When comparing relevant significant differences between substrate conditions, an increase in acetate production is observed for NADM compared to D-(+)-mannose (3084±174 vs. 1934±56 mg/L).

[1] = system: P. gingivalis virulence genes; test: Multi-species biofilm virulence gene expression, SYBR RT-qPCR: P. gingivalis; conditions: relative to control, 2^-ΔΔCt, geometric mean n=3
Experimental: as §1
(§4) The expression of 33 virulence genes from 4 periodontal pathogens is analysed to evaluate the relative virulence of the substrate-treated biofilms. For all three substrates, virulence gene expression is determined relatively to the control, and these values are also compared between substrates when this is relevant (Tables 5a-5d).

[2] = system: F. nucleatum virulence genes; test: Multi-species biofilm virulence gene expression, SYBR RT-qPCR: F. nucleatum; conditions: for Fold Change in virulence gene expression: ABC transp. perm. / Fold Change in virulence gene expression: EF-G / Fold Change in virulence gene expression: but.-coA transf. / Fold Change in virulence gene expression: hemin receptor / Fold Change in virulence gene expression: hemolysin / Fold Change in virulence gene expression: ompA / Fold Change in virulence gene expression: transposase: relative to control (=1), 2^-ΔΔCt, geometric mean n=3
Experimental: as §1, §4

[3] = system: human oral keratinocytes (HOK-18A); test: IL-8 levels in supernatants of keratinocyte cultures exposed to substrate-treated biofilms; conditions: mean±SD n=3
Experimental: Cultures of immortalized human oral keratinocytes (HOK-18A) are grown. The relative inflammatory potential of the substrate-treated multi-species biofilms is evaluated by analyzing the expression of five inflammatory mediator genes in human oral keratinocytes (HOKs) exposed to the substrate-treated biofilms. […] The IL-8 levels in the cellular supernatant are determined as well. RNA is converted to cDNA and relative expression of inflammatory mediator genes is determined as described above with respect to the cellular housekeeping gene (3-actin.
Table 7: IL-8 levels detected in the supernatants of human oral keratinocytes (HOK-18A) cultures exposed to substrate-treated multi-species biofilms are shown as mean±SD (n=3) values (pg/mL). All substrates are dissolved in PBS at a concentration of 1 M (upper part) or 1% (w/v) (lower part). Values between 0 and 1 represent relative downregulation, values >1 represent relative upregulation. […] For such values, statistically significant differences between two experimental conditions are marked with ‘#1’ (vs. NADM), ‘#2’ (vs. NADG), ‘#3’ (vs. D-(+)-mannose) (P<0.05).

[4] = substrate 1%(w/v) in PBS, listed as D-(+)-mannose
[5] = substrate 1 M in PBS, listed as D-(+)-mannose
[6] = substrate 1 M, listed as D-(+)-mannose

O=C[C@@H](O)[C@@H](O)[C@H](O)[C@H](O)CO [D-mannose, D-(+)-mannose]
Absolute abundance Aa (A. actinomycetemcomitans) (A. actinomycetemcomitans; substrate 1%(w/v) in PBS): 9.02 ± 0.11 log(Geq/mL) | Absolute abundance Aa (A. actinomycetemcomitans) (A. actinomycetemcomitans; substrate 1 M in PBS): 6.07 ± 0.47 log(Geq/mL) | Absolute abundance Pi (P. intermedia) (P. intermedia; substrate 1%(w/v) in PBS): 8.06 ± 0.19 log(Geq/mL) | Absolute abundance Pi (P. intermedia) (P. intermedia; substrate 1 M in PBS): 7.80 ± 0.57 log(Geq/mL) | Absolute abundance S. sobrinus (S. sobrinus; substrate 1%(w/v) in PBS): 5.28 ± 0.44 log(Geq/mL) | Absolute abundance S. sobrinus (S. sobrinus; substrate 1 M in PBS): 5.44 ± 0.31 log(Geq/mL) | Absolute abundance Av (A. viscosus) (A. viscosus; substrate 1%(w/v) in PBS): 8.00 ± 0.17 log(Geq/mL) | Absolute abundance Av (A. viscosus) (A. viscosus; substrate 1 M in PBS): 6.40 ± 0.48 log(Geq/mL) | Absolute abundance S. sal. (S. salivarius) (S. salivarius; substrate 1%(w/v) in PBS): 2.89 ± 0.35 log(Geq/mL) | Absolute abundance S. sal. (S. salivarius) (S. salivarius; substrate 1 M in PBS): 3.63 ± 0.90 log(Geq/mL) | Absolute abundance Vp (V. parvula) (V. parvula; substrate 1%(w/v) in PBS): 9.93 ± 0.20 log(Geq/mL) | Absolute abundance Vp (V. parvula) (V. parvula; substrate 1 M in PBS): 10.18 ± 0.09 log(Geq/mL) | Relative abundance Beneficials/Commensals (multi-species biofilm; substrate 1%(w/v) in PBS): 84.18 ± 2.04 % (Geq/mL) | Relative abundance Cariogenic Pathogens (multi-species biofilm; substrate 1%(w/v) in PBS): 0.21 ± 0.04 % (Geq/mL) | Relative abundance Periodontal Pathogens (multi-species biofilm; substrate 1%(w/v) in PBS): 15.61 ± 2.00 % (Geq/mL) | Relative abundance Beneficials/Commensals (multi-species biofilm; [4]): 84.18±2.04 % (Geq/mL) | Relative abundance Periodontal Pathogens (multi-species biofilm; [4]): 15.61±2.00 % (Geq/mL) | Relative abundance Beneficial or commensals (multi-species biofilm; substrate 1 M in PBS): 96.83 ± 0.62 % (Geq/mL) | Relative abundance Cariogenic Pathogens (multi-species biofilm; substrate 1 M in PBS): 2.40 ± 0.85 % (Geq/mL) | Relative abundance Periodontal Pathogens (multi-species biofilm; substrate 1 M in PBS): 0.77 ± 0.82 *^, #1 % (Geq/mL) | Relative abundance Beneficial or commensals (multi-species biofilm; [5]): 96.83±0.62 % (Geq/mL) | Relative abundance Periodontal Pathogens (multi-species biofilm; [5]): 0.77±0.82 % (Geq/mL) | Reduction of A. actinomycetemcomitans, F. nucleatum, P. gingivalis, A. naeslundii and A. viscosus numbers vs control (multi-species biofilm; substrate 1 M, range over the species): −1.2 to −3.7 log(Geq/mL) | acetate level in biofilm supernatant (multi-species biofilms; substrate 1%(w/v)): 352 ± 24 mg/L | butyrate level in biofilm supernatant (multi-species biofilms; substrate 1%(w/v)): 1985 ± 37 mg/L | formate level in biofilm supernatant (multi-species biofilms; substrate 1%(w/v)): 3717 ± 114 mg/L | lactate level in biofilm supernatant (multi-species biofilms; substrate 1%(w/v)): 125 ± 0 mg/L | propionate level in biofilm supernatant (multi-species biofilms; substrate 1%(w/v)): 1962 ± 28 mg/L | acetate level in biofilm supernatant (multi-species biofilms; substrate 1 M): 1934 ± 56*^, #1 mg/L | butyrate level in biofilm supernatant (multi-species biofilms; substrate 1 M): 86 ± 15*^, #1, 2 mg/L | formate level in biofilm supernatant (multi-species biofilms; substrate 1 M): 398 ± 12 mg/L | lactate level in biofilm supernatant (multi-species biofilms; substrate 1 M): 125 ± 0 mg/L | propionate level in biofilm supernatant (multi-species biofilms; substrate 1 M): 2821 ± 127 mg/L | acetate level in biofilm supernatant (multi-species biofilms; [6]): 1934 ± 56 mg/L | butyrate level in biofilm supernatant (multi-species biofilms; [6]): 85 ± 15 mg/L | propionate level in biofilm supernatant (multi-species biofilms; [6]): 2821 ± 127 mg/L | Fold Change in virulence gene expression: fimA ([1]; substrate 1%): 2.50 fold | Fold Change in virulence gene expression: kgp ([1]; substrate 1%): 3.07 fold | Fold Change in virulence gene expression: partC ([1]; substrate 1%): 0.60 fold | Fold Change in virulence gene expression: rgpA ([1]; substrate 1%): 1.85 fold | Fold Change in virulence gene expression: fimA ([1]; substrate 1M): 1.17 fold | Fold Change in virulence gene expression: kgp ([1]; substrate 1M): 0.44 fold | Fold Change in virulence gene expression: partC ([1]; substrate 1M): 0.09 fold | Fold Change in virulence gene expression: rgpA ([1]; substrate 1M): 0.18 fold | Fold Change in virulence gene expression: ABC transp. perm. ([2]; substrate 1%): 0.73 fold | Fold Change in virulence gene expression: EF-G ([2]; substrate 1%): 0.13 fold | Fold Change in virulence gene expression: but.-coA transf. ([2]; substrate 1%): 0.37 fold | Fold Change in virulence gene expression: hemin receptor ([2]; substrate 1%): 0.26 fold | Fold Change in virulence gene expression: hemolysin ([2]; substrate 1%): 0.89 fold | Fold Change in virulence gene expression: ompA ([2]; substrate 1%): 1.17 fold | Fold Change in virulence gene expression: transposase ([2]; substrate 1%): 1.38 fold | F. nucleatum butyrate acetoacetate CoA transferase gene, upregulation ([2]; substrate 1 M): 2.3 fold | F. nucleatum hemolysin gene, upregulation ([2]; substrate 1 M): 2.1 fold | Fold Change in virulence gene expression: ABC transp. perm. ([2]; substrate 1M): 2.65 fold | Fold Change in virulence gene expression: EF-G ([2]; substrate 1M): 1.36 fold | Fold Change in virulence gene expression: but.-coA transf. ([2]; substrate 1M): 2.27 fold | Fold Change in virulence gene expression: hemin receptor ([2]; substrate 1M): 3.82 fold | Fold Change in virulence gene expression: hemolysin ([2]; substrate 1M): 2.14 fold | Fold Change in virulence gene expression: ompA ([2]; substrate 1M): 1.36 fold | Fold Change in virulence gene expression: transposase ([2]; substrate 1M): 1.46 fold | IL-8 levels in supernatants of HOK-18A cultures ([3]; biofilm rinsed with substrate 1%(w/v)): 51.09 ± 13.89 pg/mL | IL-8 levels in supernatants of HOK-18A cultures ([3]; biofilm rinsed with substrate 1M): 0.06 ± 0.04 pg/mL
